Among the test systems are CCRF-CEM leukemia; HCT-116 colon; HL-60(TB) leukemia; IGROV1 ovarian; SF-295 CNS; SN12C renal; SR leukemia; U251 CNS; UACC-257 melanoma; RXF 393 renal.
Common to all, as to test: DTP human tumour cell line panel, 48 h

Several values for one entry are separate records, joined by “and”; a condition that tells them apart may be missing. Identical values can stand only once.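 How tested: cells in 96-well plates exposed to compound for 48 hours at five concentrations. GI50: concentration for 50% inhibition of growth. Definition used: TGI = concentration required for complete inhibition of growth.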 Where a SMILES comes first, the peptide text is derived from it. [ ]: non-standard residue; d: D form. The star is where a group is joined. Bn2Val = CC(C)[C@@H](C(=O)*)N(Cc1ccccc1)Cc1ccccc1; NH(3,4-diMeO-benzyl) = COc1ccc(CN*)cc1OC; NMeV = CN[C@H](C(=O)O)C(C)C; dNMeA = CN[C@H](C)C(=O)O

In general, TGI refers to the concentration giving total growth inhibition. In the case of `Cc1cc(C)nc(NS(=O)(=O)c2ccc(NC(=O)c3cccc4c(=O)c5ccccc5[nH]c34)cc2)n1`, the concentration for total growth inhibition (TGI) in the experiment on CCRF-CEM leukemia is more than 100 µM; with HCT-116 colon, 30.7 µM; with HL-60(TB) leukemia, 47.7 µM; in the experiment with IGROV1 ovarian, 68.1 µM; with SF-295 CNS, 43.5 µM; in the experiment on SN12C renal it was 32.8 µM. Besides, the total growth inhibition concentration (TGI) with SR leukemia is more than 100 µM; in the experiment with U251 CNS, 32.4 µM; in the experiment with UACC-257 melanoma it was 33.9 µM.
`CN(C)CCNC(=O)c1cccc2nc3c(Cl)cccc3nc12`: the total growth inhibition concentration (TGI) is 16.1 µM in the experiment on HCT-116 colon; more than 100 µM in the experiment on HL-60(TB) leukemia; more than 86.4 µM in the experiment with IGROV1 ovarian; 16.6 µM in the experiment on RXF 393 renal; more than 27.1 µM in the experiment on SF-295 CNS; 49.5 µM in the experiment on SN12C renal. For the same molecule, the results for the TGI in the experiment on SR leukemia, with U251 CNS and in the experiment with UACC-257 melanoma were more than 100 µM, 30.5 µM and 26.9 µM, respectively.
As for `OCc1c(-c2cccc3ccccc23)sc(-c2cccc3ccccc23)c1CO`, the concentration for total growth inhibition (TGI) in the experiment on CCRF-CEM leukemia came to 46.5 µM; with HL-60(TB) leukemia, 42.5 µM; with IGROV1 ovarian, 28 µM; in the experiment with SF-295 CNS it was 28.2 µM; in the experiment with SN12C renal, 26.8 µM; in the experiment on SR leukemia it was 44 µM. Moreover, the results for the TGI in the experiment with U251 CNS and in the experiment on UACC-257 melanoma were 24.9 µM and 25.6 µM, respectively.
On to `CN1CCCNCCN(CCc2ccccn2)CCCN(C)CC1`, for which the TGI in the experiment with CCRF-CEM leukemia was more than 60 µM; in the experiment with HCT-116 colon, more than 100 µM; in the experiment with HL-60(TB) leukemia it was more than 63.6 µM; in the experiment with IGROV1 ovarian it was more than 100 µM; in the experiment with SF-295 CNS, more than 100 µM; in the experiment on SN12C renal it was more than 100 µM. Further, the TGI was 57.3 µM in the experiment on SR leukemia, more than 100 µM with U251 CNS and more than 100 µM with UACC-257 melanoma.
With `COc1ccc(/C=C(/C(=O)O)c2cc(OC)c(OC)c(OC)c2)cc1`, the concentration for total growth inhibition (TGI) in the experiment with CCRF-CEM leukemia, in the experiment with HCT-116 colon, with IGROV1 ovarian, with SN12C renal, with SR leukemia and in the experiment with U251 CNS was more than 100 µM each time. In the experiment with UACC-257 melanoma, this molecule gave a total growth inhibition concentration (TGI) of more than 100 µM.
As to `CCCNC(=O)OCc1c(COC(=O)NCCC)c(-c2ccc(Cl)c(Cl)c2)n2c1CCC2`, the concentration for total growth inhibition (TGI) in the experiment with CCRF-CEM leukemia was 7.95 µM; in the experiment on HCT-116 colon, 17.7 µM; in the experiment with HL-60(TB) leukemia, 7.7 µM; in the experiment with IGROV1 ovarian it was 5.54 µM; in the experiment with RXF 393 renal, 9.35 µM; in the experiment with SF-295 CNS it was 12.3 µM. Further, the TGI in the experiment on SN12C renal is 19.4 µM; in the experiment on U251 CNS it was 28.9 µM; in the experiment with UACC-257 melanoma, 20.1 µM.
Consider `CCOC(=O)c1c(N)n(-c2ccccc2)c(=S)n(-c2ccccc2)c1=O`, for which the concentration for total growth inhibition (TGI) in the experiment on CCRF-CEM leukemia, in the experiment with HL-60(TB) leukemia, in the experiment on IGROV1 ovarian, in the experiment on RXF 393 renal, in the experiment on SF-295 CNS and in the experiment with SN12C renal was more than 100 µM each time. Besides, the total growth inhibition concentration (TGI) with SR leukemia, in the experiment on U251 CNS and in the experiment with UACC-257 melanoma was more than 100 µM each time.
With `COc1ccc(NC2Oc3cc4c(cc3C(c3cc(OC)c(OC)c(OC)c3)C2C)OCO4)cc1` (stereo not given), the concentration for total growth inhibition (TGI) is more than 100 µM with CCRF-CEM leukemia; 19.1 µM in the experiment with HCT-116 colon; 2 µM with HL-60(TB) leukemia; more than 100 µM with IGROV1 ovarian; more than 100 µM in the experiment with RXF 393 renal; 0.971 µM in the experiment on SF-295 CNS. The TGI was more than 81.5 µM in the experiment on SN12C renal, 11.6 µM with U251 CNS and more than 78.5 µM in the experiment with UACC-257 melanoma.
As a reminder, the GI50 is the concentration giving 50% growth inhibition. `S=C1NCCN1C1=Nc2ccccc2CO1`: the GI50 was more than 100 µM in the experiment with CCRF-CEM leukemia; more than 100 µM in the experiment on HCT-116 colon; more than 100 µM in the experiment with HL-60(TB) leukemia; 74 µM with IGROV1 ovarian; more than 100 µM in the experiment with SF-295 CNS; more than 100 µM in the experiment on SN12C renal. Besides, the GI50 in the experiment on SR leukemia, in the experiment with U251 CNS and in the experiment on UACC-257 melanoma was more than 100 µM throughout. Further, the concentration for total growth inhibition (TGI) in the experiment on CCRF-CEM leukemia, in the experiment with HCT-116 colon, in the experiment with HL-60(TB) leukemia, in the experiment on IGROV1 ovarian, with SF-295 CNS and in the experiment on SN12C renal was more than 100 µM each time. Moreover, the total growth inhibition concentration (TGI) with SR leukemia, with U251 CNS and with UACC-257 melanoma was more than 100 µM throughout.
In the case of `COc1ccc(CNC(=O)[C@@H](C)N(C)C(=O)[C@@H]2CCCN2C(=O)[C@H](C(C)C)N(C)C(=O)[C@@H](NC(=O)[C@H](C(C)C)N(Cc2ccccc2)Cc2ccccc2)C(C)C)cc1OC` (Bn2Val-V[NMeV]P[dNMeA]-{NH(3,4-diMeO-benzyl)}), the GI50 with CCRF-CEM leukemia was 0.756 µM; with HCT-116 colon it was 4.87 µM; in the experiment on IGROV1 ovarian it was 11.1 µM; in the experiment on RXF 393 renal, 3.61 µM; in the experiment on SF-295 CNS it was 9.29 µM; in the experiment with SN12C renal, 10 µM. The GI50 with UACC-257 melanoma was 10.2 µM. The concentration for total growth inhibition (TGI) in the experiment with CCRF-CEM leukemia was 16.9 µM and 44.2 µM; with HCT-116 colon, 14.4 µM and 17.7 µM; with HL-60(TB) leukemia, 11 µM and 9.45 µM; in the experiment on IGROV1 ovarian it was 13.6 µM and 28.3 µM; in the experiment with RXF 393 renal, 12.8 µM and 15 µM; in the experiment with SF-295 CNS it was 13.8 µM and 23 µM. The concentration for total growth inhibition (TGI) was 17.2 µM and 22.2 µM with SN12C renal; 22.1 µM and 20 µM in the experiment with U251 CNS; 21.8 µM and 23.5 µM in the experiment with UACC-257 melanoma.
For the molecule `COC(=O)c1c(OC)cccc1C(=O)O`, the TGI in the experiment with CCRF-CEM leukemia, in the experiment on HCT-116 colon, with HL-60(TB) leukemia, with IGROV1 ovarian, with RXF 393 renal and with SF-295 CNS was more than 100 µM throughout. Further, the TGI with SN12C renal, in the experiment on U251 CNS and with UACC-257 melanoma was more than 100 µM each time.
As to `CC(=O)c1ccc(N(/C=C/C(=O)C(F)(F)F)CC(=O)c2ccc(Cl)c(Cl)c2)cc1`, the GI50 in the experiment with CCRF-CEM leukemia was 10.4 µM; in the experiment on HCT-116 colon it was 13.4 µM; in the experiment on IGROV1 ovarian it was 13.9 µM; with RXF 393 renal it was 13.9 µM; with SF-295 CNS, 12.3 µM; in the experiment on SN12C renal, 15 µM. Besides, the GI50 with SR leukemia was 3.59 µM; with U251 CNS, 14 µM; in the experiment on UACC-257 melanoma, 15.2 µM. Also, the TGI was 36.9 µM in the experiment on CCRF-CEM leukemia; 26.2 µM in the experiment with HCT-116 colon; 28.4 µM in the experiment with IGROV1 ovarian; 30.4 µM in the experiment on RXF 393 renal; 26.2 µM in the experiment on SF-295 CNS; 28.8 µM in the experiment on SN12C renal. Also, the TGI came to 19.3 µM in the experiment on SR leukemia, 27.7 µM with U251 CNS and 29.4 µM in the experiment on UACC-257 melanoma.

The values are drawn from PubChem BioAssay (NCI).
